Values of other authors, collected in US6432453B1, “Dietary supplement containing glycerol ester of conjugated linoleic acid and rosemary extract containing carnosic acid” (Metagenics, Inc., priority 2000, dated 2002).
Read-outs that look alike come from different tables or passages of the source.

What was measured:
[1] = free fatty acid form
[2] = CLA-supplemented subjects, three months, no change of diet

In the case of conjugated linoleic acid [CLA], the “half-life (oxidation)” value ([1]; 25° C.) is listed as 336 h, the “half-life (oxidation)” value ([1]; 75° C.) is listed as 7 h and the body fat lost [2] is listed as “up to 20%”.
